How the values were obtained:
NRAS G12C = NRAS G12C (Homo sapiens (Human), UniProt P01111+P62937, G12C); assay: Ras-Raf (BRAF RBD) disruption / FRET / MOA assay, NRAS G12C; type: biochemical; settings: read-out: IC50* NRAS G12C FRET data
Procedure, shortened: (§1)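 Compound-driven ternary complex of nucleotide-loaded Ras with cyclophilin A, disrupting BRAF RBD binding. 10-point 3-fold dilution from 30 μM final, 3 h at 25° C, then anti-His Eu-W1024 (10 nM) and anti-GST allophycocyanin (50 nM) for 1.5 h. IC50 from TR-FRET ratio decrease versus DMSO.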

KRAS G12V = KRAS G12V (Homo sapiens (Human), UniProt P01116+P62937, G12V); assay: Ras-Raf (BRAF RBD) disruption / FRET / MOA assay, KRAS G12V; type: biochemical; settings: read-out: IC50* KRAS G12V FRET data
Chain of KRAS G12V (P01116-2 other isoform, or with tags, fused parts or gaps G12V): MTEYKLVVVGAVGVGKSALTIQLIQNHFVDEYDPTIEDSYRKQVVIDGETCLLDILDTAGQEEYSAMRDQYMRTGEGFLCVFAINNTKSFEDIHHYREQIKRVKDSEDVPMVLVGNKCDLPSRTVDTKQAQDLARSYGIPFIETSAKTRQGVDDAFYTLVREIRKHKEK
Chain of KRAS G12V (P62937 whole entry): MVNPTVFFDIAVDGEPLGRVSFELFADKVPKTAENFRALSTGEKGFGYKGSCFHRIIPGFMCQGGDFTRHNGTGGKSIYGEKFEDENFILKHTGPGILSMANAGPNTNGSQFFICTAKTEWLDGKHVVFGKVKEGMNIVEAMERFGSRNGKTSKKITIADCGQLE
Procedure, shortened: as §1

KRAS G12D = KRAS G12D (Homo sapiens (Human), UniProt P01116+P62937, G12D); assay: Ras-Raf (BRAF RBD) disruption / FRET / MOA assay, KRAS G12D; type: biochemical; settings: Ras-Raf disruption/FRET/MOA assay; class symbols; read-out: KRAS G12D FRET data IC50
Chain of KRAS G12D (P01116-2 other isoform, or with tags, fused parts or gaps G12D): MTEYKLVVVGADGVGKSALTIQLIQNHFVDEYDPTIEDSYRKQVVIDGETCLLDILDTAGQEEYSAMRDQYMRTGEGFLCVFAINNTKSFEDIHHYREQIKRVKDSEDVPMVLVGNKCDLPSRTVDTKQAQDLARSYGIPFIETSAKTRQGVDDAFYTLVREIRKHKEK
Chain of KRAS G12D (P62937 whole entry): as the sequence (P62937 whole entry) above
Procedure, shortened: as §1

K-Ras G13C = K-Ras G13C (Homo sapiens (Human), UniProt P01116+P62937, G13C); assay: Ras-Raf (BRAF RBD) disruption / FRET / MOA assay, KRAS G13C; type: biochemical; settings: KRAS G13C; Ras-Raf disruption/FRET/MOA assay; read-out: IC50* KRAS G13C FRET data
Chain of K-Ras G13C (P01116-2 other isoform, or with tags, fused parts or gaps G13C): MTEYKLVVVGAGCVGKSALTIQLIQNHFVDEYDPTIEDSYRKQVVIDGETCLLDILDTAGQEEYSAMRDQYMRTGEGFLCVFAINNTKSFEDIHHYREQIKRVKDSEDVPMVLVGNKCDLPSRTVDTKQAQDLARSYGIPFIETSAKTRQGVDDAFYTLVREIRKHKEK
Chain of K-Ras G13C (P62937 whole entry): as the sequence (P62937 whole entry) above
Procedure, shortened: as §1

KRAS WT = KRAS WT (Homo sapiens (Human), UniProt P01116+P62937); assay: Ras-Raf (BRAF RBD) disruption / FRET / MOA assay, KRAS WT; type: biochemical; settings: read-out: IC50* KRAS WT FRET data
Chain of KRAS WT (P01116-2 other isoform, or with tags, fused parts or gaps): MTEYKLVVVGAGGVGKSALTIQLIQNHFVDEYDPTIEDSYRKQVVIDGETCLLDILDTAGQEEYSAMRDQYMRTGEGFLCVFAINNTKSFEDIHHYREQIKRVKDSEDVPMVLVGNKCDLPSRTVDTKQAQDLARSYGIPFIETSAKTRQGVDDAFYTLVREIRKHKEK
Chain of KRAS WT (P62937 whole entry): as the sequence (P62937 whole entry) above
Procedure, shortened: as §1

NCI-H358 (K-Ras G12C) = assay: CellTiter-Glo cell viability assay, NCI-H358; type: cell-based, human; settings: Homo sapiens, NCI-H358, 120 h, NCI-H358, 5-day treatment; class symbols; read-out: Additional H358 Cell Viability assay data (K-Ras G12C, IC50)
Procedure, shortened: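 Four-parameter logistic fits were applied to luminescence data normalized against DMSO-treated wells. Readings were taken on day 5 following direct compound addition, after roughly 30 minutes at room temperature.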

K-Ras G12C = K-Ras G12C (Homo sapiens (Human), UniProt P01116+P62937, G12C); assay: Ras-Raf (BRAF RBD) disruption / FRET / MOA assay, KRAS G12C; type: biochemical; settings: KRAS G12C; Ras-Raf disruption/FRET/MOA assay; read-out: IC50* KRAS G12C FRET data
Chain of K-Ras G12C (P01116-2 other isoform, or with tags, fused parts or gaps G12C): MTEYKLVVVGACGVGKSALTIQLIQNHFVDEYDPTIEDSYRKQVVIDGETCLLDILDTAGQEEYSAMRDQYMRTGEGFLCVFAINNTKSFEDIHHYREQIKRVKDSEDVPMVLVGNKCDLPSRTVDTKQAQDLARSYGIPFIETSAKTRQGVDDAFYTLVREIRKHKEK
Chain of K-Ras G12C (P62937 whole entry): as the sequence (P62937 whole entry) above
Procedure, shortened: as §1

[1] = test system: NCI-H358 cells (K-Ras G12C); assay: Potency assay: pERK in NCI-H358 cells; type: cell-based, human; settings: Homo sapiens, NCI-H358; H358 KRAS G12C; read-out: pERK EC50
Procedure, shortened: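 Compounds are dosed as ten 3-fold dilutions from a 10 mM DMSO stock, in duplicate, and left on cells for 4 h at 37 °C, 5% CO2. Phospho-ERK1/2 is then quantified by AlphaLISA SureFire Ultra or In-Cell Western, and IC50 is derived from a 4-parameter sigmoid against log concentration.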

KRAS G12S = KRAS G12S (Homo sapiens (Human), UniProt P01116+P62937, G12S); assay: Ras-Raf (BRAF RBD) disruption / FRET / MOA assay, KRAS G12S; type: biochemical; settings: Ras-Raf disruption/FRET/MOA assay; class symbols; read-out: KRAS G12S FRET data IC50
Chain of KRAS G12S (P01116-2 other isoform, or with tags, fused parts or gaps G12S): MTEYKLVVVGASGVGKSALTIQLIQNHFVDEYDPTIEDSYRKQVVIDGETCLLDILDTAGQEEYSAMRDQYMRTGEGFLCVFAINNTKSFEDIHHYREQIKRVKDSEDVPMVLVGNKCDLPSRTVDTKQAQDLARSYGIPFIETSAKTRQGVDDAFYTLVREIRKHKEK
Chain of KRAS G12S (P62937 whole entry): as the sequence (P62937 whole entry) above
Procedure, shortened: as §1

KRAS G13D = KRAS G13D (Homo sapiens (Human), UniProt P01116+P62937, G13D); assay: Ras-Raf (BRAF RBD) disruption / FRET / MOA assay, KRAS G13D; type: biochemical; settings: read-out: IC50* KRAS G13D FRET data
Chain of KRAS G13D (P01116-2 other isoform, or with tags, fused parts or gaps G13D): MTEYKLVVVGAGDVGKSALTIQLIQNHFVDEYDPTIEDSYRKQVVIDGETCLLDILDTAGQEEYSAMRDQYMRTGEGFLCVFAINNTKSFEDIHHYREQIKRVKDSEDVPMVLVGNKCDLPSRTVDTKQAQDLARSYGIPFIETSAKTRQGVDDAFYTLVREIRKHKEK
Chain of KRAS G13D (P62937 whole entry): as the sequence (P62937 whole entry) above
Procedure, shortened: as §1

Chain of NRAS G12C (P01111 whole entry G12C): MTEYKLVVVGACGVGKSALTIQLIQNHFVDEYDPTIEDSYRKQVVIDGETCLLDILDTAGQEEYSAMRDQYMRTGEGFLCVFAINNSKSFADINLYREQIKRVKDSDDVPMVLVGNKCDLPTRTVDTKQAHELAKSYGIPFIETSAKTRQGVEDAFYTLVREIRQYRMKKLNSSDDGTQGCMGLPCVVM
Chain of NRAS G12C (P62937 whole entry): as the sequence (P62937 whole entry) above

SMILES | IC50 (NRAS G12C) [µM] | IC50 (KRAS G12V) [µM] | IC50 (KRAS G12D) [µM] | IC50 (K-Ras G13C) [µM] | IC50 (KRAS WT) [µM] | IC50 (NCI-H358 (K-Ras G12C)) [µM] | IC50 (K-Ras G12C) [µM] | EC50 [1] [µM] | IC50 (KRAS G12S) [µM] | IC50 (KRAS G13D) [µM]
CCn1c(-c2cccnc2[C@H](C)OC)c2c3cc(ccc31)-c1cccc(c1)C[C@H](NC(=O)[C@H](C(C)C)N(C)C(=O)[C@H]1CCN(C(=O)C#C[C@]3(C)CCCN3C)C1)C(=O)N1CCC[C@H](N1)C(=O)OCC(C)(C)C2 [Example A317] | 0.01 to 0.1 | 1 to 10 | > 10 | 1 to 10 | 1 to 10 | < 0.01 | < 0.01 | < 5 | 1 to 10 | > 10
CCn1c(-c2cncnc2)c2c3cc(ccc31)-c1cc(O)cc(c1)C[C@H](NC(=O)[C@H](C(C)C)N(C)C(=O)[C@H]1CCN(C(=O)C#CCN3CCOCC3)C1)C(=O)N1CCC[C@H](N1)C(=O)OCC(C)(C)C2 [Example A176] | < 0.01 | 1 to 10 | > 10 | 1 to 10 | > 10 | 0.01 to 0.1 | < 0.01 | < 5 | 1 to 10 | > 10
C=CC(=O)N1CC[C@@](C#N)(C(=O)N(C)[C@H](C(=O)N[C@H]2Cc3cccc(c3)-c3ccc4c(c3)c(c(-c3cccnc3[C@H](C)OC)n4CC)CC(C)(C)COC(=O)[C@@H]3CCCN(N3)C2=O)C(C)C)C1 (atropisomer, axis not shown) [Example A444] | 0.01 to 0.1 | 0.1 to 1 | 1 to 10 | 0.1 to 1 | 1 to 10 | < 0.01 | 0.01 to 0.1 | < 5 | 1 to 10 | 1 to 10
C=CC(=O)N(C)[C@H](C(=O)N[C@H]1Cc2cc(O)cc(c2)-c2ccc3c(c2)c(c(-c2cccnc2COC)n3CC)CC(C)(C)COC(=O)[C@@H]2CCCN(N2)C1=O)C(C)C [Example A110] | 1 to 10 | 1 to 10 | 1 to 10 | 0.1 to 1 | 0.1 to 1 | 0.1 to 1 | 0.1 to 1 | < 5 | 1 to 10 | 1 to 10
C=CC(=O)N1CCN(C(=O)N(C)[C@H](C(=O)N[C@H]2Cc3cc(O)cc(c3)-c3ccc4c(c3)c(c(-c3ccccc3CCOC)n4CC)CC(C)(C)COC(=O)[C@@H]3CCCN(N3)C2=O)C(C)C)C[C@@H]1COC [Example A125] | 1 to 10 | 1 to 10 | > 10 | 0.1 to 1 | 1 to 10 | > 1 | 0.1 to 1 | < 5 | 1 to 10 | 1 to 10
C=CC(=O)NC[C@@H]1CCN1C(=O)N(C)[C@H](C(=O)N[C@H]1Cc2nc(cs2)-c2ccc3c(c2)c(c(-c2cccnc2[C@H](C)OC)n3CC)CC(C)(C)COC(=O)[C@@H]2CCCN(N2)C1=O)C(C)C (atropisomer, axis not shown) [Example A422] | 0.1 to 1 | 1 to 10 | 1 to 10 | 0.1 to 1 | 1 to 10 | 0.01 to 0.1 | 0.1 to 1 | < 5 | 1 to 10 | 1 to 10
CCn1c(-c2cccnc2[C@H](C)OC)c2c3cc(ccc31)-c1cc(O)cc(c1)C[C@H](NC(=O)[C@H](C(C)C)N(C)C(=O)[C@H]1CCN(C(=O)/C=C/C(F)(F)F)C1)C(=O)N1CCC[C@H](N1)C(=O)OCC(C)(C)C2 [Example A527] | < 0.01 | 0.01 to 0.1 | 0.1 to 1 | 0.01 to 0.1 | 0.01 to 0.1 | < 0.01 | < 0.01 | < 5 | 0.01 to 0.1 | 0.01 to 0.1
CCn1c(-c2cccnc2)c2c3cc(ccc31)-c1cc(O)cc(c1)C[C@H](NC(=O)[C@H](C(C)C)N(C)C(=O)[C@H]1CCN(C(=O)C#CCN(C)C)C1)C(=O)N1CCC[C@H](N1)C(=O)OCC(C)(C)C2 [Example A142] | 0.01 to 0.1 | > 10 | 1 to 10 | 0.1 to 1 | > 10 | 0.1 to 1 | 0.01 to 0.1 | < 5 | > 10 | 1 to 10
C=CC(=O)N1CC(F)(C(=O)N(C)[C@H](C(=O)N[C@H]2Cc3cccc(c3)-c3ccc4c(c3)c(c(-c3cccnc3[C@H](C)OC)n4CC)CC(C)(C)COC(=O)[C@@H]3CCCN(N3)C2=O)C(C)C)C1 (atropisomer, axis not shown) [Example A517] | 0.01 to 0.1 | 0.1 to 1 | 1 to 10 | 0.01 to 0.1 | 0.1 to 1 | < 0.01 | 0.01 to 0.1 | < 5 | 0.1 to 1 | 1 to 10
CCn1c(-c2cccnc2COC)c2c3cc(ccc31)-c1cc(O)cc(c1)C[C@H](NC(=O)[C@@H](C(C)C)N(C)C(=O)[C@H]1C[C@@H](C)N(C(=O)C#CCN(C)C)C1)C(=O)N1CCC[C@H](N1)C(=O)OCC(C)(C)C2 [Example A165] | 0.01 to 0.1 | > 10 | > 10 | 0.1 to 1 | > 10 | 0.01 to 0.1 | 0.01 to 0.1 | < 5 | > 10 | > 10
CCn1c(-c2cccnc2[C@H](C)OC)c2c3cc(ccc31)-c1cc(O)cc(c1)C[C@H](NC(=O)[C@H](C(C)C)N1CC[C@@]3(CCN(C(=O)/C=C/CN(C)C)C3)C1=O)C(=O)N1CCC[C@H](N1)C(=O)OCC(C)(C)C2 (atropisomer, axis not shown) [Example A269] | 0.01 to 0.1 | 0.1 to 1 | 0.1 to 1 | 0.1 to 1 | 0.1 to 1 | 0.01 to 0.1 | 0.01 to 0.1 | < 5 | 0.1 to 1 | 0.1 to 1
CCn1c(-c2cnccc2[C@H](C)OC)c2c3cc(ccc31)-c1cc(O)cc(c1)C[C@H](NC(=O)[C@H](C(C)C)N(C)C(=O)[C@H]1CCN(C(=O)C#CCN(C)C)C1)C(=O)N1CCC[C@H](N1)C(=O)OCC(C)(C)C2 [Example A123] | < 0.01 | 0.1 to 1 | 0.1 to 1 | 0.01 to 0.1 | 0.1 to 1 | < 0.01 | 0.01 to 0.1 | < 5 | 0.1 to 1 | 0.1 to 1
CCn1c(-c2cccnc2)c2c3cc(ccc31)-c1cccc(c1)C[C@H](NC(=O)[C@H](C(C)C)N(C)C(=O)[C@H]1CCN(C(=O)C#CCN(C)C)C1)C(=O)N1CCC[C@H](N1)C(=O)OCC(C)(C)C2 [Example A152] | 0.01 to 0.1 | 1 to 10 | 1 to 10 | 1 to 10 | 1 to 10 | 0.01 to 0.1 | 0.01 to 0.1 | < 5 | > 10 | 1 to 10
C=CC(=O)N1CCC2(CC1)CCN([C@H](C(=O)N[C@H]1Cc3cc(O)cc(c3)-c3ccc4c(c3)c(c(-c3cccnc3[C@H](C)OC)n4CC)CC(C)(C)COC(=O)[C@@H]3CCCN(N3)C1=O)C(C)C)C2=O (atropisomer, axis not shown) [Example A296] | 0.01 to 0.1 | 0.1 to 1 | 1 to 10 | 0.01 to 0.1 | 0.01 to 0.1 | < 0.01 | 0.01 to 0.1 | < 5 | 0.1 to 1 | 0.01 to 0.1
CC#CC(=O)N1CC[C@]2(CCN([C@H](C(=O)N[C@H]3Cc4cccc(c4)-c4ccc5c(c4)c(c(-c4cccnc4[C@H](C)OC)n5CC)CC(C)(C)COC(=O)[C@@H]4CCCN(N4)C3=O)C(C)C)C2=O)C1 (atropisomer, axis not shown) [Example A412] | 0.1 to 1 | 1 to 10 | 1 to 10 | 0.1 to 1 | 1 to 10 | 0.01 to 0.1 | 0.1 to 1 | < 5 | 1 to 10 | 1 to 10
C=CC(=O)N1C[C@@H]2C[C@H]1CN2C(=O)N(C)[C@H](C(=O)N[C@H]1Cc2nc(cs2)-c2ccc3c(c2)c(c(-c2cccnc2[C@H](C)OC)n3CC)CC(C)(C)COC(=O)[C@@H]2CCCN(N2)C1=O)C(C)C (atropisomer, axis not shown) [Example A409] | 0.1 to 1 | 0.1 to 1 | 0.1 to 1 | 0.1 to 1 | 0.1 to 1 | 0.01 to 0.1 | 0.1 to 1 | < 5 | 0.1 to 1 | 1 to 10

— patent publication US11566007B2, “Ras inhibitors” (Revolution Medicines, Inc., priority 2019, dated 2023)
